Measurements: US20210330611A1, “THERAPY FOR NEUROLOGICAL DISEASES/DISORDERS” (priority 2020, published 2021)
Where two headings read alike, the source gives them in different places.

Legend:
Type in all cases: cell-based, rat
[1] = system: fibrin-induced microglia activation; assay: Image-based assay of fibrin-induced microglia activation (HTS and dose response); conditions: for inhibition at 10 µM / IC50: Rattus norvegicus, Microglia; for inhibition at 10 µM: read-out: Fibrin % inhibition
[2] = system: LPS-induced microglia activation; assay: Image-based assay of LPS-induced microglia activation (HTS and dose response); conditions: for inhibition at 10 µM / IC50: Rattus norvegicus, Microglia; for inhibition at 10 µM: read-out: LPS % inhibition
[3] = system: fibrin- and LPS-induced microglia activation; assay: cells; conditions: for Activity: Table 7, fib = fibrin, LPS, tox = toxicity; for inhibition at 10 µM: Rattus norvegicus, Microglia
[4] = primary microglia HTS, fibrin stimulation, compounds at 10 μM
[5] = primary microglia HTS, LPS stimulation, compounds at 10 μM
[6] = quadrant by fibrin and LPS inhibition, HTS at 10 μM
[7] = quadrant by fibrin and LPS inhibition in HTS of 1907 compounds

## O=C1O[C@H]([C@@H](O)CO)C(O)=C1O [Ascorbic Acid]
[1]; [4]
  inhibition at 10 µM: -8%
[2]; [5]
  inhibition at 10 µM: 12%
[3]; [6]
  Quadrant (FIG. 5b): Q4

## COc1ccc(C(=O)N2CCCC2=O)cc1 [Aniracetam]
[1]; [4]
  inhibition at 10 µM: 6%
[2]; [5]
  inhibition at 10 µM: 4%
[3]; [6]
  Quadrant (FIG. 5b): Q4

## CC(=O)Oc1c(C)c(C)c2c(c1C)CCC(C)(CCCC(C)CCCC(C)CCCC(C)C)O2 (stereo not drawn) [Alpha-tochopheryl Acetate]
[1]; [4]
  Fibrin % inhibition: 22%
[2]; [5]
  LPS % inhibition: 8%
[3]; [6]
  Quadrant (FIG. 5b): Q4

## C=C[C@@]1(C)CC(=O)[C@]2(O)[C@@]3(C)[C@@H](O)CCC(C)(C)[C@@H]3[C@H](O)[C@H](OC(C)=O)[C@@]2(C)O1 [colforsin]
[1]; Table 7, read-out: fib_IC50
  IC50: 2.08 µM
[2]; Table 7, read-out: LPS_IC50
  IC50: 1.35 µM
[3]
  Activity: fib/LPS

## C[C@@H]1C[C@H]2[C@@H]3C[C@H](F)C4=CC(=O)C=C[C@]4(C)[C@@]3(F)[C@@H](O)C[C@]2(C)[C@@]1(O)C(=O)CO [Flumethasone, reference compound]
[1]; 48 h, read-out: Fibrin IC50
  IC50: < 0.001 µM
[1]
  inhibition at 10 µM: 109%
[1]; read-out: Fibrin IC50 (uM)
  IC50: < 0.001 µM
[1]; read-out: Fibrin IC50 (uM) (Suppl. Table 7)
  IC50: < 0.001 µM
[2]; 48 h
  inhibition at 10 µM: 101%
[2]; 48 h, read-out: LPS IC50
  IC50: < 0.001 µM
[2]; read-out: LPS IC50 (uM)
  IC50: < 0.001 µM
[2]; read-out: LPS IC50 (uM) (Suppl. Table 7)
  IC50: < 0.001 µM
[3]
  Quadrant (FIG. 5b): Q2
[3]; read-out: Cherry-picked Hit (Suppl. Table 7)
  inhibition at 10 µM: > 50%
[3]; read-out: Hit
  inhibition at 10 µM: > 50%

## O=C(CCCN1CC=C(n2c(=O)[nH]c3ccccc32)CC1)c1ccc(F)cc1 [Droperidol]
[1]
  inhibition at 10 µM: -3%
[2]
  inhibition at 10 µM: 20%
[3]
  Quadrant (FIG. 5b): Q4

## FluoromethoIone [reference compound]
[1]; Hill slope of fibrin dose response, Table 7
  fib_HS: −0.27
[1]; Table 7
  fib specificity: 1.0
[2]; Hill slope of LPS dose response, Table 7
  LPS_HS: 0.00
[2]; Table 7
  LPS specificity: 1.0
[3]; Table 2, screen at 10 μM
  Quadrant (FIG. 5b): Q2
[3]
  Activity: fib/LPS

## CN1CCN2c3ccccc3Cc3ccccc3C2C1 (stereo not drawn) [Mianserin]
[1]
  inhibition at 10 µM: -18%
[2]; 48 h
  inhibition at 10 µM: 17%
[3]
  Quadrant (FIG. 5b): Q4

## COc1ccc2c(c1OC)C(=O)O[C@@H]2[C@H]1c2cc3c(cc2CCN1C)OCO3 [Hydrastine (1r,9s)]
[1]; primary microglia HTS, fibrin stimulation, activation = cell size >800 μm2
  Fibrin % inhibition: −27%
[2]; primary microglia HTS, LPS stimulation, activation = cell size >800 μm2
  LPS % inhibition: 10%
[3]; [7]
  Quadrant (FIG. 5b): Q4

## O=C1C=C2CC3(O)COc4cc(O)ccc4C3=C2C=C1O (stereo not drawn) [brazilein]
[1]; Table 7, read-out: fib_IC50
  IC50: 1.47 µM
[2]; Table 7, read-out: LPS_IC50
  IC50: 2.17 µM
[3]
  Activity: fib/LPS

## C[C@H]1O[C@H](O[C@H]2[C@H](O)[C@@H](O)[C@@H](O[C@H]3[C@H](O)[C@@H](O)C(O)O[C@@H]3CO)O[C@@H]2CO)[C@H](O)[C@@H](O)[C@@H]1N[C@H]1C=C(CO)[C@@H](O)[C@H](O)[C@H]1O (stereo partly drawn) [Acarbose]
[1]; [4]
  inhibition at 10 µM: -22%
[1]; primary microglia HTS, fibrin stimulation, increased cell size (>800 μm^2) as marker of activation
  inhibition at 10 µM: 81%
[2]; 48 h, primary microglia HTS, LPS stimulation, increased cell size (>800 μm^2) as marker of activation
  inhibition at 10 µM: 62%
[2]; [5]
  inhibition at 10 µM: -5%
[3]; [7]
  Quadrant (FIG. 5b): Q2
[3]; [6]
  Quadrant (FIG. 5b): Q4

## C[C@]12CC[C@@H]3c4ccc(O)cc4CC[C@H]3[C@@H]1C[C@@H](O)[C@@H]2O [Estriol]
[1]
  inhibition at 10 µM: -17%
[2]; 10 µM
  LPS % inhibition: 16%
[2]
  inhibition at 10 µM: 8%
[3]
  Quadrant (FIG. 5b): Q4

## CC(C)NCC(O)COc1cccc2ccccc12 (stereo not drawn)
[1]; 10 µM
  Fibrin % inhibition: −18%
[2]
  inhibition at 10 µM: -5%
[3]
  Quadrant (FIG. 5b): Q4

## Oxolamine Citrate
[1]
  Fibrin % inhibition: −1%
[2]
  LPS % inhibition: 10%
[3]
  Quadrant (FIG. 5b): Q4

## CO[C@@H]1C[C@@H](C[C@H]2CC[C@H](C)[C@H]([C@@H](C)C(=O)O)O2)O[C@]2(O[C@](C)([C@H]3CC[C@@](C)([C@@H]4O[C@@H]([C@H]5O[C@@](O)(CO)[C@H](C)C[C@@H]5C)C[C@@H]4C)O3)C[C@H]2C)[C@@H]1C [nigericin sodium]
[1]; Table 7, read-out: fib_IC50
  IC50: 0.206 µM
[2]; Table 7, read-out: LPS_IC50
  IC50: 0.065 µM
[3]
  Activity: fib/LPS

## Adipic Acid, Hexanedioic Acid
[1]; [4]
  Fibrin % inhibition: −24%
[2]; [5]
  LPS % inhibition: 8%
[3]; [6]
  Quadrant (FIG. 5b): Q4

## COCc1c(C(C)C)nc(C(C)C)c(/C=C/[C@@H](O)C[C@@H](O)CC(=O)O)c1-c1ccc(F)cc1 [Cerivastatin, Cerivastatin Na]
[1]
  Fibrin % inhibition: 103%
[2]
  LPS % inhibition: 101%
[3]
  Quadrant (FIG. 5b): Q2

## N=C(N)NCCN1CCCCCCC1 [Guanethidine]
[1]
  inhibition at 10 µM: -44%
[2]; 48 h
  inhibition at 10 µM: 12%
[3]
  Quadrant (FIG. 5b): Q4
